Results published in PMC12362585, “Development and Preclinical Characterization of [^18F]H3-2406 and [^18F]H3-2407 for Positron Emission Tomography Imaging of the Histamine Subtype‑3 Receptor” (Journal of Medicinal Chemistry, 2025).

Experiments:
[1] = Ex vivo whole-body biodistribution; format: in vivo; settings: 5 min postadministration, CD1 mice
Procedure: To further investigate the whole-body distribution of [^18F]3, ex vivo biodistribution experiments were conducted in CD1 mice at 5-, 15-, 30-, and 60 min postadministration. […] Initially, high levels of radioactivity were detected in the heart, lung, and kidney, with subsequent clearance observed in these organs over time. […] Minimal radioactivity was detected in the blood and bone at all time points throughout the study. […] These findings indicate that our tracer is relatively stable against in vivo defluorination.
A dose of 1.0 MBq of [^18F]3 in 0.1 mL saline was intravenously injected into the tail vein of CD1 mice (5–6 weeks). At various time-points (5-, 15-, 30- and 60 min) postinjection, the mice were sacrificed, and their organs were collected and weighed. The radioactivity of each organ was measured using a γ counter (PerkinElmer Wizard).

[2] = molecular target: T1, H3R (Rattus norvegicus, UniProt Q9QYN8); assay: In vitro autoradiography on rat brain sections; format: binding, SD rat
T1 construct: The brains of SD rat were sectioned into 15 μm slices; from tissue; host or cells: SD rat brain sections
T1 sequence (Q9QYN8 whole entry): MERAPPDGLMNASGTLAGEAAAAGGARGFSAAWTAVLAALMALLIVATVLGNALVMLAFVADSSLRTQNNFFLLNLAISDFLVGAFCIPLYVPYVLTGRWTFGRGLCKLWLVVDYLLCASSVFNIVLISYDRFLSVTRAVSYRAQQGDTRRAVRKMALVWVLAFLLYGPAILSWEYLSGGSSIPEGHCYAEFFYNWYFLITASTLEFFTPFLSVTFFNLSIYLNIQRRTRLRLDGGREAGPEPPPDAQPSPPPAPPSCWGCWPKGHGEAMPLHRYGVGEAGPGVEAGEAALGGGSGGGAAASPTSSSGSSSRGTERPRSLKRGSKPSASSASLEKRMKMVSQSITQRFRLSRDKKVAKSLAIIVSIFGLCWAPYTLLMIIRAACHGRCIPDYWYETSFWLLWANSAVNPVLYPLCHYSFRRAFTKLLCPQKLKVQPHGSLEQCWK
Procedure: To validate the target specificity and selectivity, in vitro autoradiography experiments were conducted using [^18F]3 and [^18F]4 on rat brain sections. […] Furthermore, pretreatment with unlabeled compound 3 (10 μM) led to a signal reduction of over 90% in the brain. […] This discrepancy is likely attributable to additional off-target binding of [^18F]3, which is further supported by high uptake in the cerebellum – a region with low H3R expression. […] The high uptake in the cerebellum may be attributed to nonspecific binding to unidentified CNS targets. […] Nonetheless, the results support further in vivo PET evaluation to better understand their binding profiles and evaluate their potential for H3R imaging – particularly in regions with low sigma-1 abundance.
The ARG was measured according to previously reported methods. , The brains of SD rat were sectioned into 15 μm slices and stored in −80 °C. For each experiment, the brain slices allowed them to warm to room temperature and then incubated in Tris-HCl buffer (50 mM, containing 0.1% bovine serum albumin) for 10 min. The slices were incubated with [^18F]3 or [^18F]4 (0.037 MBq/mL) in the presence of either DMSO (baseline study), GSK189254 (10 μM, blocking study), and unlabeled 3 or 4 (10 μM, blocking study) at room temperature for 30 min. Following incubation, the brain slices were washed three times with cold Tris-HCl buffer (50 mM) for 5 min each, and then dipped in water 2 times for 5 s. The brain slices were dried under cold air and exposed to a Phosphor Screen (BAS IP MS2025, Cytiva) for 2 h. The radioactivity and imaging were captured using an Amersham Typhoon 5 (Cytiva) and the data were analyzed using ImageJ software.

[3] = In vitro stability in liver microsomes, mice; format: in vitro ADME; settings: 90 min
Procedure: (§1) To assess the stability of [^18F]3, in vitro radioactivity analyses were conducted following 30-, 60- and 90 min coincubation of the radioligand in the serum and liver microsomes from mice, nonhuman primates (NHPs), and humans (Figure ).
(§2) Serum from mice, NHPs, and humans were warmed to room temperature, 15 MBq of [^18F]3 was added to 0.4 mL of each species’ serum. The mixtures were incubated at 37 °C and 0.1 mL of mixture was transferred into 0.2 mL cold acetonitrile at 30, 60, and 90 min. The samples were vortexed for 15 s and then centrifuged at 10,000g for 5 min. The supernatant was analyzed using analytical HPLC (Agilent 1100 series HPLC system on Phenomenex Luna C-18 column (4.6 × 150 mm), mobile phase 30% CH3CN/0.1% TFA in water, flow:1 mL/min). For microsomes studies, a mixture of microsomes (0.5 mg/mL), [^18F]3 (15 MBq), 0.35 mL of PBS, 0.05 mL of NADPH regenerating system A, and 0.01 mL of NADPH regenerating system B were incubated at 37 °C. The subsequent steps followed the same procedure as described above.

[4] = molecular target: T2, sigma-1 receptor (Mus musculus, UniProt O55242); assay: PET imaging in mice with NE-100 or ABT-239 blocking; format: in vivo
T2 construct: we conducted additional in vivo PET imaging studies using NE-100; from tissue; host or cells: brain of living mice
T2 sequence (O55242 whole entry): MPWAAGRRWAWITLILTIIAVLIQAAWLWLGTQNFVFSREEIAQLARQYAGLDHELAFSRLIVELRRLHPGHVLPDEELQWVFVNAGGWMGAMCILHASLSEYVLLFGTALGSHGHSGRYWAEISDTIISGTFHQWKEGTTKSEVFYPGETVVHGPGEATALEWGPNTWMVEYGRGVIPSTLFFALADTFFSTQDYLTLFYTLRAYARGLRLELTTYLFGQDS

[5] = tested on: P-glycoprotein (P-gp) and breast cancer resistance protein (BCRP); assay: PET imaging in mice pretreated with elacridar; format: in vivo; settings: elacridar 3 mg/kg, 20 min prior to radioligand injection
Procedure: To determine whether [^18F]3 is actively effluxed by BBB transporters such as P-glycoprotein (P-gp) and breast cancer resistance protein (BCRP), we conducted additional PET scans in mice pretreated with elacridar (3 mg/kg, a dual P-gp/BCRP inhibitor) 20 min prior to radioligand injection.
Figure S4. Mice PET imaging studies (0−60 minutes) of [ 18F]3. (A) TACs of [ 18F]3 in the whole-brain under baseline and elacridar-blocking (3 mg/kg) conditions; (B) Area under curve of [ 18F]3 in the whole-brain; All data were referred to as mean ± SD, n = […]
The molar activities of [18F]3 and [18F]4 were determined using calibration curves, which were generated by plotting the concentration of the authentic standard compounds 3 or 4 against their respective flow injection analysis peak area ratios ([…]). Based on these calibration curves, the molar activities of [18F]3 and [18F]4 were calculated and reported as GBq/µmol.
Figure S5. Calibration curves of compounds 3 (A) and 4 (B). The standard curve was generated by plotting the HPLC UV signal area against concentrations of the compounds 3 or 4. Linear regression analysis was performed to determine the correlation between peak area and […]

[6] = In vitro stability in liver microsomes, humans; format: in vitro ADME; settings: 90 min
Procedure: as §1, §2

[7] = In vitro stability in liver microsomes, NHPs; format: in vitro ADME, nonhuman primates (NHPs); settings: 90 min
Procedure: as §1, §2

[8] = In vitro stability in serum, NHPs; format: in vitro ADME, nonhuman primates (NHPs); settings: NHP serum, 37 °C, 30, 60 and 90 min
Procedure: as §1, §2

[9] = In vitro stability in serum, mice; format: in vitro ADME; settings: 37 °C, 30, 60 and 90 min
Procedure: as §1, §2

[10] = In vitro stability in serum, humans; format: in vitro ADME; settings: human serum, 37 °C, 30, 60 and 90 min
Procedure: as §1, §2

## O=C([C@H]1C[C@@H]1c1ccc([18F])cc1)N1CCN(C2CCCC2)CC1 [[^18F]3]
[1]
  brain uptake: 10.9 %ID/g
[2]; GSK189254 10 μM
  reduction in radioactivity across brain regions, GSK189254 blocking: 43.6–86.0%
[2]; unlabeled 3 or 4 at 10 μM
  signal reduction, self-blocking with unlabeled compound: over 90%
[3]
  parent fraction in liver microsomes: 78%
[4]; ABT-239 (dual H3R and sigma-1 receptor antagonist) 3 mg/kg
  effect of ABT-239 preinjection on brain signal: near-complete signal blockade
[4]; NE-100 (selective sigma-1 receptor antagonist) 3 mg/kg
  effect of NE-100 blocking on brain uptake: partial reduction
[5]
  change of brain uptake after elacridar pretreatment: did not significantly change
[6]
  parent fraction in liver microsomes: 95%
[7]
  parent fraction in liver microsomes: 85%
[8]
  parent compound remaining intact in serum: over 95%
[9]
  parent compound remaining intact in serum: over 95%
[10]
  parent compound remaining intact in serum: over 95%
